PubChem BioAssay (NCI)
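Exposure lasted 48 hours, with cells grown in 96-well plates and compounds tested at five concentrations. TGI denotes the concentration required for complete inhibition of growth.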

Experiments:
Experiment in all cases: NCI anticancer screen, dose series, 48 h
786-0 renal = tested on: 786-0 renal
COLO 205 colon = tested on: COLO 205 colon
NCI-H23 lung = tested on: NCI-H23 lung
MALME-3M melanoma = tested on: MALME-3M melanoma
SK-OV-3 ovarian = tested on: SK-OV-3 ovarian
HOP-62 NSCLC = tested on: HOP-62 NSCLC
KM12 colon = tested on: KM12 colon
RPMI-8226 leukemia = tested on: RPMI-8226 leukemia
EKVX NSCLC = tested on: EKVX NSCLC
ACHN renal = tested on: ACHN renal
A498 renal = tested on: A498 renal
HCC-2998 colon = tested on: HCC-2998 colon
HCT-116 colon = tested on: HCT-116 colon
T-47D breast = tested on: T-47D breast
MOLT-4 leukemia = tested on: MOLT-4 leukemia
UO-31 renal = tested on: UO-31 renal
SF-268 CNS = tested on: SF-268 CNS
NCI-H522 lung = tested on: NCI-H522 lung
LOX IMVI melanoma = tested on: LOX IMVI melanoma
A549 NSCLC = tested on: A549 NSCLC
OVCAR-8 ovarian = tested on: OVCAR-8 ovarian
K-562 leukemia = tested on: K-562 leukemia
SW-620 colon = tested on: SW-620 colon
PC-3 prostate = tested on: PC-3 prostate
UACC-257 melanoma = tested on: UACC-257 melanoma
MDA-N = tested on: MDA-N
U251 CNS = tested on: U251 CNS
MDA-MB-231 breast = tested on: MDA-MB-231 breast
NCI-H460 lung = tested on: NCI-H460 lung
OVCAR-3 ovarian = tested on: OVCAR-3 ovarian
M14 melanoma = tested on: M14 melanoma
OVCAR-5 ovarian = tested on: OVCAR-5 ovarian
SN12C renal = tested on: SN12C renal
IGROV1 ovarian = tested on: IGROV1 ovarian
BT-549 breast = tested on: BT-549 breast
SK-MEL-28 melanoma = tested on: SK-MEL-28 melanoma
RXF 393 renal = tested on: RXF 393 renal
SNB-19 CNS = tested on: SNB-19 CNS
CAKI-1 renal = tested on: CAKI-1 renal
OVCAR-4 ovarian = tested on: OVCAR-4 ovarian
SK-MEL-5 melanoma = tested on: SK-MEL-5 melanoma
SF-295 CNS = tested on: SF-295 CNS
SF-539 CNS = tested on: SF-539 CNS
SNB-75 CNS = tested on: SNB-75 CNS
TK-10 renal = tested on: TK-10 renal
MCF7 breast = tested on: MCF7 breast
SK-MEL-2 melanoma = tested on: SK-MEL-2 melanoma
HT29 colon = tested on: HT29 colon
NCI/ADR-RES ovarian = tested on: NCI/ADR-RES ovarian
HS 578T breast = tested on: HS 578T breast
DU-145 prostate = tested on: DU-145 prostate
HL-60(TB) leukemia = tested on: HL-60(TB) leukemia
MDA-MB-435 = tested on: MDA-MB-435
SR leukemia = tested on: SR leukemia
NCI-H226 lung = tested on: NCI-H226 lung
UACC-62 melanoma = tested on: UACC-62 melanoma
HOP-92 NSCLC = tested on: HOP-92 NSCLC
HCT-15 colon = tested on: HCT-15 colon
CCRF-CEM leukemia = tested on: CCRF-CEM leukemia
DMS 114 small cell lung = tested on: DMS 114 small cell lung
KM20L2 colon = tested on: KM20L2 colon
DLD-1 colon = tested on: DLD-1 colon
LXFL 529 NSCLC = tested on: LXFL 529 NSCLC
M19-MEL melanoma = tested on: M19-MEL melanoma

## CC(=O)OCC1OC(O[C@@H]2C[C@H]3C(C)(C)[C@H](OC(C)=O)CC[C@]3(C)[C@H]3CC[C@@]45C[C@H](O)C[C@H](C)[C@@H]4CC=C5[C@@]32C)C(O)C(O)C1O (stereo not given in full)
786-0 renal
  TGI: 12.8 µM
COLO 205 colon
  TGI: 3.28 µM
NCI-H23 lung
  TGI: 18.3 µM
MALME-3M melanoma
  TGI: 20.3 µM
SK-OV-3 ovarian
  TGI: 22 µM
HOP-62 NSCLC
  TGI: 23.8 µM
KM12 colon
  TGI: 7.59 µM
RPMI-8226 leukemia
  TGI: 6.02 µM
EKVX NSCLC
  TGI: 22 µM
ACHN renal
  TGI: 18.5 µM
A498 renal
  TGI: 15.8 µM
HCC-2998 colon
  TGI: 3.72 µM
HCT-116 colon
  TGI: 4.85 µM
T-47D breast
  TGI: 13.7 µM
MOLT-4 leukemia
  TGI: 6.33 µM
UO-31 renal
  TGI: 26.3 µM
SF-268 CNS
  TGI: 15.6 µM
NCI-H522 lung
  TGI: 9.28 µM
LOX IMVI melanoma
  TGI: 4.07 µM
A549 NSCLC
  TGI: 16.9 µM
OVCAR-8 ovarian
  TGI: 17.4 µM
K-562 leukemia
  TGI: 7.66 µM
SW-620 colon
  TGI: 16.6 µM
PC-3 prostate
  TGI: 10.7 µM
UACC-257 melanoma
  TGI: 17.8 µM
MDA-N
  TGI: 12.4 µM
U251 CNS
  TGI: 10.3 µM
MDA-MB-231 breast
  TGI: 11.6 µM
NCI-H460 lung
  TGI: 12.5 µM
OVCAR-3 ovarian
  TGI: 10.6 µM
M14 melanoma
  TGI: 14.8 µM
OVCAR-5 ovarian
  TGI: 6.42 µM
SN12C renal
  TGI: 15.5 µM
IGROV1 ovarian
  TGI: 9.33 µM
BT-549 breast
  TGI: 12.7 µM
SK-MEL-28 melanoma
  TGI: 19.4 µM
RXF 393 renal
  TGI: 6.23 µM
SNB-19 CNS
  TGI: 14.9 µM
CAKI-1 renal
  TGI: 24.6 µM
OVCAR-4 ovarian
  TGI: 16.4 µM
SK-MEL-5 melanoma
  TGI: 8.65 µM
SF-295 CNS
  TGI: 12.5 µM
SF-539 CNS
  TGI: 19.2 µM
SNB-75 CNS
  TGI: 10.9 µM
TK-10 renal
  TGI: 21.4 µM
MCF7 breast
  TGI: 11 µM
SK-MEL-2 melanoma
  TGI: 5.93 µM
HT29 colon
  TGI: 3.7 µM
NCI/ADR-RES ovarian
  TGI: 32.9 µM
HS 578T breast
  TGI: 18.2 µM
DU-145 prostate
  TGI: 20.6 µM
HL-60(TB) leukemia
  TGI: 3.86 µM
MDA-MB-435
  TGI: 11.2 µM
SR leukemia
  TGI: 4.27 µM
NCI-H226 lung
  TGI: 16.1 µM
UACC-62 melanoma
  TGI: 16.6 µM
HOP-92 NSCLC
  TGI: 15 µM
HCT-15 colon
  TGI: 25.5 µM
CCRF-CEM leukemia
  TGI: 13.6 µM

## O=C(CC(=O)C(=O)CC(=O)OCc1ccccc1)OCc1ccccc1
786-0 renal
  TGI: > 100 µM
COLO 205 colon
  TGI: > 100 µM
NCI-H23 lung
  TGI: > 100 µM
MALME-3M melanoma
  TGI: > 100 µM
SK-OV-3 ovarian
  TGI: > 100 µM
HOP-62 NSCLC
  TGI: > 100 µM
RPMI-8226 leukemia
  TGI: > 100 µM
EKVX NSCLC
  TGI: > 100 µM
A498 renal
  TGI: > 100 µM
HCC-2998 colon
  TGI: > 100 µM
HCT-116 colon
  TGI: > 100 µM
DMS 114 small cell lung
  TGI: > 100 µM
MOLT-4 leukemia
  TGI: > 100 µM
UO-31 renal
  TGI: 75.7 µM
SF-268 CNS
  TGI: > 100 µM
NCI-H522 lung
  TGI: > 100 µM
A549 NSCLC
  TGI: > 100 µM
OVCAR-8 ovarian
  TGI: > 100 µM
K-562 leukemia
  TGI: > 100 µM
SW-620 colon
  TGI: > 100 µM
KM20L2 colon
  TGI: > 100 µM
DLD-1 colon
  TGI: > 100 µM
U251 CNS
  TGI: > 100 µM
LXFL 529 NSCLC
  TGI: > 100 µM
M14 melanoma
  TGI: > 100 µM
OVCAR-5 ovarian
  TGI: > 100 µM
SN12C renal
  TGI: > 100 µM
IGROV1 ovarian
  TGI: > 100 µM
SK-MEL-28 melanoma
  TGI: > 100 µM
RXF 393 renal
  TGI: > 100 µM
SNB-19 CNS
  TGI: > 100 µM
CAKI-1 renal
  TGI: > 100 µM
OVCAR-4 ovarian
  TGI: > 100 µM
SK-MEL-5 melanoma
  TGI: > 100 µM
M19-MEL melanoma
  TGI: > 100 µM
SF-539 CNS
  TGI: > 100 µM
SNB-75 CNS
  TGI: > 100 µM
TK-10 renal
  TGI: > 100 µM
SK-MEL-2 melanoma
  TGI: > 100 µM
HT29 colon
  TGI: > 100 µM
HL-60(TB) leukemia
  TGI: > 100 µM
SR leukemia
  TGI: > 100 µM
UACC-62 melanoma
  TGI: > 100 µM
HOP-92 NSCLC
  TGI: > 100 µM
HCT-15 colon
  TGI: > 100 µM
CCRF-CEM leukemia
  TGI: > 100 µM
